# From patent publication US20250282757A1, “ARYL ETHER-SUBSTITUTED HETEROCYCLIC COMPOUNDS AS GLP1R AGONISTS” (MINDRANK AI LTD., priority 2021, published 2025)
# Molecular target: GLP-1R (Homo sapiens, UniProt P43220)
# Assay: Agonist activity on GLP-1R, HTRF cAMP detection in stably transfected GLP-1R/HEK293 cells
# Type: cell-based
# Details: for EC50: 30 min incubation; for Max activity: relative to top concentration of reference GLP-1(7-37)
# Protocol: Detection of Agonist Activity of the Test Compounds on GLP-1R
# • 1) The test compound was dissolved in DMSO and diluted 4-fold with Bravo for a total of 10 concentration gradients (the starting concentration was 1 mM). […] HBSS (10 mL) pre-warmed at 37° C. was added, mixed gently, and centrifuged at 1000 rpm for 5 minutes. The supernatant was discarded and another 10 mL of […] was added and mixed gently. […] The plate was shaken to mix at 2000 rpm for 60 seconds. • 7) The cells in the 384-well plate were incubated in CO2 cell incubator at 37° C. for 30 min. • 8) 10 μL of HTRF cAMP detection solution was added to the 384-well plate, stick with sealing film, and incubated at room temperature for 1 hour. • 9) After 1 hour of incubation, the sealing film was removed. The plate was put into the EnVision microplate reader to read the values of OD665 nm and OD615 nm.
# GLP-1R, sequence (P43220 24-463): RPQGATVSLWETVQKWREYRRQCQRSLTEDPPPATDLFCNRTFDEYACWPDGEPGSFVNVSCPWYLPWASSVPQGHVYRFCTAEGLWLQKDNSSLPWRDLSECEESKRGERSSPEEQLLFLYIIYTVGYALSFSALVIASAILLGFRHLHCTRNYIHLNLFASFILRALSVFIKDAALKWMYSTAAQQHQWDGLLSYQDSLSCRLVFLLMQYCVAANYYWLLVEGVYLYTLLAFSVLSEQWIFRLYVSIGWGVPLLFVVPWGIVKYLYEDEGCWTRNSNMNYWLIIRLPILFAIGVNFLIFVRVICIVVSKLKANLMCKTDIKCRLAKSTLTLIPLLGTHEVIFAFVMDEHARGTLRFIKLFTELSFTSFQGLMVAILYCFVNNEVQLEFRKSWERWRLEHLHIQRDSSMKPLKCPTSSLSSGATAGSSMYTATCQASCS
SMILES,EC50 [nM],Max activity [%]
N#CCC1(Cn2c(CN3CCC(Oc4cccc(OCc5ccc(C#N)cc5F)c4)CC3)nc3c(F)cc(C(=O)O)cc32)CC1 [Compound S6],2.6,114.9
"CCn1cncc1Cn1c(CN2CCC(Oc3cccc(COc4ccc(Cl)cc4F)n3)CC2)nc2ccc(C(=O)O)cc21 [Compound 43, 2-((4-((6-((4-chloro-2-fluorophenoxy)methyl)pyridin-2-yl)oxy)piperidin-1-yl)methyl)-1-((1-ethyl-1H-imidazol-5-yl)methyl)-1H-benzo[d]imidazole-6-carboxylic acid]",0.11,109.7
C#Cc1ccc(OCc2cccc(OC3CCN(Cc4nc5ccc(C(=O)O)cc5n4Cc4cncn4CC)CC3)n2)c(F)c1 [Compound C14],0.315,101.9
"CCn1cncc1Cn1c(CN2CCC(Oc3cccc(COc4ccc(Br)cc4F)n3)CC2)nc2ccc(C(=O)O)cc21 [Compound C3, 2-((4-((6-((4-bromo-2-fluorophenoxy)methyl)pyridin-2-yl)oxy)piperidin-1-yl)methyl)-1-((1-ethyl-1H-imidazol-5-yl)methyl)-1H-benzo[d]imidazole-6-carboxylic acid]",0.278,122.3
"N#Cc1ccc(OCc2cccc(OC3CCN(Cc4nc5ccc(C(=O)O)cc5n4Cc4cncn4CC4CC4)CC3)c2)c(F)c1 [Compound C20, 2-((4-(3-((4-cyano-2-fluorophenoxy)methyl)phenoxy)piperidin-1-yl)methyl)-1-((1-(cyclopropylmethyl)-1H-imidazol-5-yl)methyl)-1H-benzo[d]imidazole-6-carboxylic acid]",0.425,137.0
"N#CCC1(Cn2c(CN3CCC(Oc4cccc(COc5ccc(Cl)cc5F)n4)CC3)nc3ccc(C(=O)O)cc32)CC1 [Compound C84, 2-((4-((6-((4-chloro-2-fluorophenoxy)methyl)pyridin-2-yl)oxy)piperidin-1-yl)methyl)-1-((1-(cyanomethyl)cyclopropyl)methyl)-1H-benzo[d]imidazole-6-carboxylic acid]",0.246,136.4
"CCn1cncc1Cn1c(CN2CCC(Oc3cccc(OCc4ccc(C#N)cc4F)c3)CC2)nc2ccc(C(=O)O)cc21 [Compound S23, 2-((4-(3-((4-cyano-2-fluorobenzyl)oxy)phenoxy)piperidin-1-yl)methyl)-1-((1-ethyl-1H-imidazol-5-yl)methyl)-1H-benzo[d]imidazole-6-carboxylic acid]",1.47,98.0
N#CCC1(Cn2c(CN3CCC(Oc4cccc(OCc5ccc(C#N)cc5F)n4)CC3)nc3c(F)cc(C(=O)O)cc32)CC1 [Compound S20],0.962,129.1
CCn1cncc1Cn1c(CN2CCC(Oc3cccc(CSc4ccc(Cl)cc4F)n3)CC2)nc2ccc(C(=O)O)cc21 [Compound C9],3.74,97.2
"CCn1cncc1Cn1c(CN2CCC(Oc3ccc(F)c(COc4ccc(C#N)cc4F)n3)CC2)nc2ccc(C(=O)O)cc21 [Compound 3, 2-((4-((6-((4-cyano-2-fluorophenoxy)methyl)-5-fluoropyridin-2-yl)oxy)piperidin-1-yl)methyl)-1-((1-ethyl-1H-imidazol-5-yl)methyl)-1H benzo[d]imidazole-6-carboxylic acid]",0.317,128.3
"CCn1cncc1Cn1c(CN2CCN(Cc3cccc(COc4ccc(C#N)cc4F)n3)CC2)nc2ccc(C(=O)O)cc21 [Compound C38, 2-((4-((6-((4-cyano-2-fluorophenoxy)methyl)pyridin-2-yl)methyl)piperazin-1-yl)methyl)-1-((1-ethyl-1H-imidazol-5-yl)methyl)-1H-benzo[d]imidazole-6-carboxylic acid]",> 100,
"N#CCC1(Cn2c(CN3CCC(Oc4cccc(COc5ccc(Br)cc5F)n4)CC3)nc3ccc(C(=O)O)cc32)CC1 [Compound C26, 2-((4-((6-((4-bromo-2-fluorophenoxy)methyl)pyridin-2-yl)oxy)piperidin-1-yl)methyl)-1-((1-(cyanomethyl)cyclopropyl)methyl)-1H-benzo[d]imidazole-6-carboxylic acid]",0.215,117.3
"CCn1cncc1Cn1c(CN2CCC(Oc3cccc(OCc4ccc(C#N)cc4F)n3)CC2)nc2ccc(/C=C/C(=O)O)cc21 [Compound C2, (E)-3-(2-((4-((6-((4-cyano-2-fluorobenzyl)oxy)pyridin-2-yl)oxy)piperidin-1-yl)methyl)-1-((1-ethyl-1H-imidazol-5-yl)methyl)-1H-benzo[d]imidazol-6-yl)acrylic acid]",0.614,123.1
N#Cc1ccc(COc2cccc(OCC3CCN(Cc4nc5ccc(C(=O)O)cc5n4C[C@@H]4CCO4)CC3)n2)c(F)c1 [Compound S1],1400,93.7
O=C(O)/C=C/c1ccc2nc(CN3CCC(Oc4ccc(F)c(OCc5ccc(Cl)cc5F)n4)CC3)n(C[C@@H]3CCO3)c2c1 [Compound S36],150,114.2
"N#Cc1ccc(COc2cccc(COC3CCN(Cc4nc5ccc(C(=O)O)cc5n4C[C@@H]4CCO4)CC3)n2)c(F)c1 [Compound S22, (S)-2-((4-((6-((4-cyano-2-fluorobenzyl)oxy)pyridin-2-yl)methoxy)piperidin-1-yl)methyl)-1-(oxetan-2-ylmethyl)-1H-benzo[d]imidazole-6-carboxylic acid]",731,92.7
"Cc1ncc(Cn2c(CN3CCC(Oc4cccc(COc5ccc(C#N)cc5F)n4)CC3)nc3ccc(C(=O)O)cc32)n1C [Compound C6, 2-((4-((6-((4-cyano-2-fluorophenoxy)methyl)pyridin-2-yl)oxy)piperidin-1-yl)methyl)-1-((1,2-dimethyl-1H-imidazol-5-yl)methyl)-1H-benzo[d]imidazole-6-carboxylic acid]",13.8,99.8
"CCn1cncc1Cn1c(CN2CCC(Sc3cccc(COc4ccc(C#N)cc4F)n3)CC2)nc2ccc(C(=O)O)cc21 [Compound C37, 2-((4-((6-((4-cyano-2-fluorophenoxy)methyl)pyridin-2-yl)thio)piperidin-1-yl)methyl)-1-((1-ethyl-1H-imidazol-5-yl)methyl)-1H-benzo[d]imidazole-6-carboxylic acid]",0.223,121.0
"CCn1cncc1Cn1c(CN2CCC(Oc3cccc(COc4ccc(C#N)cc4F)n3)CC2)nc2c(F)cc(C(=O)O)cc21 [Compound 2, 2-((4-((6-((4-cyano-2-fluorophenoxy)methyl)pyridin-2-yl)oxy)piperidin-1-yl)methyl)-1-((1-ethyl-1H-imidazol-5-yl)methyl)-4-fluoro-1H-benzo[d]imidazole-6-carboxylic acid]",0.0529,98.6
"N#Cc1ccc(COc2cccc(Oc3cc(F)c(Cc4nc5c(F)cc(C(=O)O)cc5n4C[C@@H]4CCO4)cc3F)n2)c(F)c1 [Compound C43, (S)-2-(4-((6-((4-cyano-2-fluorobenzyl)oxy)pyridin-2-yl)oxy)-2,5-difluorobenzyl)-4-fluoro-1-(oxetan-2-ylmethyl)-1H-benzo[d]imidazole-6-carboxylic acid]",5.31,88.8
"C#Cc1ccc(OCc2cccc(OC3CCN(Cc4nc5ccc(C(=O)O)cc5n4CC4(CC#N)CC4)CC3)n2)c(F)c1 [Compound C25, 1-((1-(cyanomethyl)cyclopropyl)methyl)-2-((4-((6-((4-ethynyl-2-fluorophenoxy)-methyl)pyridine-2-yl)oxy)piperidin-1-yl)methyl)-1H-benzo[d]imidazole-6-carboxylic acid]",0.512,133.4
"N#CCC1(Cn2c(CN3CCC(Oc4ccc(F)c(COc5ccc(C#N)cc5F)n4)CC3)nc3ccc(C(=O)O)cc32)CC1 [Compound 135, 2-((4-((6-((4-cyano-2-fluorophenoxy)methyl)-5-fluoropyridin-2-yl)oxy)piperidin-1-yl)methyl)-1-((1-(cyanomethyl)cyclopropyl)methyl)-1H-benzo[d]imidazole-6-carboxylic acid]",0.244,109.6
"N#Cc1ccc(COc2cccc(OC3CCN(Cc4nc5ccc(C(=O)O)cc5n4C[C@@H]4CCO4)CC3)c2)c(F)c1 [Compound S5, (S)-2-((4-(3-((4-cyano-2-fluorobenzyl)oxy)phenoxy)piperidin-1-yl)methyl)-1-(oxetan-2-ylmethyl)-1H-benzo[d]imidazole-6-carboxylic acid]",15.4,125.2
"CCN1C(=O)CCC1Cn1c(CN2CCC(Oc3cccc(COc4ccc(C#N)cc4F)n3)CC2)nc2ccc(C(=O)O)cc21 (centres unmarked) [Compound C34, 2-((4-((6-((4-cyano-2-fluorophenoxy)methyl)pyridin-2-yl)oxy)piperidin-1-yl)methyl)-1-((1-ethyl-5-oxopyrrolidin-2-yl)methyl)-1H-benzo[d]imidazole-6-carboxylic acid]",11,113.6
"N#Cc1ccc(OCc2cccc(OC3CCN(Cc4nc5ccc(C(=O)O)nc5n4C[C@@H]4CCO4)CC3)n2)c(F)c1 [Compound 60, (S)-2-((4-((6-((4-cyano-2-fluorophenoxy)methyl)pyridin-2-yl)oxy)piperidin-1-yl)methyl)-3-(oxetan-2-ylmethyl)-3H-imidazo[4,5-b]pyridine-5-carboxylic acid]",0.455,112.0
"CCn1cncc1Cn1c(Cc2ccc(Oc3cccc(COc4ccc(C#N)cc4F)n3)cc2)nc2ccc(C(=O)O)cc21 [Compound C28, 2-(4-((6-((4-cyano-2-fluorophenoxy)methyl)pyridin-2-yl)oxy)benzyl)-1-((1-ethyl-1H-imidazol-5-yl)methyl)-1H-benzo[d]imidazole-6-carboxylic acid]",5.05,
